Results: patent US9427415B2, “Methods and compositions for modifying sensorial perception” (The Procter & Gamble Company, priority 2014, dated 2016)
Where two headings read alike, the source gives them in different places.

Experiments:
[1] = tested on: TRPA1V1; assay: Intracellular calcium (Fluo-4, FLIPR) activation of TRPA1V1 cells (co-expressing TRPA1 and TRPV1) by GRAS compounds; format: cell-based, human;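 also: HEK293 cells co-expressing TRPA1 and TRPV1, fluorescence read at 488/514 nm after baseline subtraction, recorded every 2 s over 10 min, ionomycin 10 µM and buffer as controls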
Description: TRPV1, TRPA1, TRPA1V1 and pcDNA3 cells were grown in 15 mL growth medium [high glucose DMEM (Dulbecco's modification of Eagle's medium) supplemented with 10% FBS (fetal bovine serum), 100 μg/mL penicillin/streptomycin, 100 μg/mL G418] in a 75 cm^2 flask for 3 days in a mammalian cell culture incubator at 33° C. and 5% CO2. TRP Cells were detached with 8 mL of PBS (without calcium or magnesium); for pcDNA3 cells, trypsin was used for releasing the cells. The detached cells were spun at low speed (800-900 rpm for 3 min) to pellet the cells. […] The cells were washed once with 45 mL assay buffer (1×HBSS, 20 mM HEPES) by low speed centrifugation (800-900 rpm for 3 min) and resuspended in 11 mL of the assay buffer in a reagent reservoir. […] The plates were set at room temperature for 30 min. The plates were read in a FLIPR^TETRA instrument (Molecular Devices, Sunnyvale, Calif.) at λex 488 nm and λem 514 nm to record baseline fluorescence following which 20 μL of test material at 1 mM or 100 μM final concentration for pure compounds in a GRAS library or 0.004% for extracts. For agonists, capsaicin 350 nM and AITC at 30 μM; and for controls, ionomycin 10 μM and buffer alone) was added to each well using the dispenser provided in the FLIPR. The data point was recorded every 2 seconds for a total of 10 min.
Average value for activation from three independent assay plates are presented as % of agonist value (AITC, 30 μM for TRPA1 and capsaicin, 350 nM for TRPV1. For TRPA1V1, we used AITC, 30 μM or capsaicin, 350 nM depending on if the compound is an A1 agonist or a V1 agonist. For compounds that activated both A1 and V1, we used AITC for normalization). Variation among triplicates was within 10% of each other. Assayed at 1 mM for pure compounds and 0.004% for extracts.

[2] = biological target: T1, human TRPV1 (Homo sapiens, UniProt Q8NER1, M315I/T336M); assay: Intracellular calcium (Fluo-4, FLIPR) activation of TRPV1 cells by GRAS compounds; format: cell-based; settings: for activation at 100 µM / activation at 1000 µM / V1 activation, % of agonist value: relative to capsaicin 350 nM; for activation at 100 µM / activation at 1000 µM: read-out: V1 activation, % of agonist value; for TRPV1 activation selectivity, in words: statement in description, see Table 1(i);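 as to all read-outs here: TRPV1-expressing cells, FLIPR fluorescence at 488/514 nm with baseline subtracted, sampled every 2 s for 10 min after adding compound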
T1 construct: expressed in transfected cells; pcDNA3 control cells
T1 sequence (Q8NER1 whole entry M315I/T336M): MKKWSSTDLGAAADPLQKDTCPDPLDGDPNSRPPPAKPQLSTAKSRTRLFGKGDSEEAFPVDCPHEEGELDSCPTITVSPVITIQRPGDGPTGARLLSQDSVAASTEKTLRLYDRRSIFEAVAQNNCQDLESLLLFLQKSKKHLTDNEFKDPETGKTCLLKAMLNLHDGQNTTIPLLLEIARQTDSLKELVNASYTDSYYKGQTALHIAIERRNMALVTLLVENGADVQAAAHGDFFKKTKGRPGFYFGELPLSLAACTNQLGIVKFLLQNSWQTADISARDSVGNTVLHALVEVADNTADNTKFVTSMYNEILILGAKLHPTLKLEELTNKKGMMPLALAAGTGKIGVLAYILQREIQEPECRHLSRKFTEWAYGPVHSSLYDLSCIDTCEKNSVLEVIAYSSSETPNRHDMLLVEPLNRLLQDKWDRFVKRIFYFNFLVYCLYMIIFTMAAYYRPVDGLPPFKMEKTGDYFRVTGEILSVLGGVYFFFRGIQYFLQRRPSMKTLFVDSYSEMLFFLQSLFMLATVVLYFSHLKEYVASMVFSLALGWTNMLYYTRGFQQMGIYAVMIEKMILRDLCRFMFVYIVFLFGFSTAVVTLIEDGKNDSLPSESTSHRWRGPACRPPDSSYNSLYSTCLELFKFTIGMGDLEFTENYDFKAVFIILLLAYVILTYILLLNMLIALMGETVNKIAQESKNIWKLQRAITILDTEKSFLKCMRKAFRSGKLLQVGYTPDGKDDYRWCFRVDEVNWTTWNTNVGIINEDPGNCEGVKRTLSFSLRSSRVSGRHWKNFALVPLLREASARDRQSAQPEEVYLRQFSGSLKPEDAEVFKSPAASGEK

[3] = biological target: T2, human TRPA1 (Homo sapiens, UniProt O75762, K186N/R3C/R58T); assay: Intracellular calcium (Fluo-4, FLIPR) activation of TRPA1 cells by GRAS compounds; format: cell-based; settings: relative to AITC 30 μM; for activation at 100 µM / activation at 1000 µM: read-out: A1 activation, % of agonist value;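 as to all read-outs here: TRPA1-expressing cells, fluorescence read on a FLIPR Tetra (ex 488 nm, em 514 nm) every 2 s for 10 min after compound addition, baseline subtracted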
T2 construct: expressed in transfected cells; pcDNA3 control cells
T2 sequence (O75762 whole entry R3C/R58T/K186N): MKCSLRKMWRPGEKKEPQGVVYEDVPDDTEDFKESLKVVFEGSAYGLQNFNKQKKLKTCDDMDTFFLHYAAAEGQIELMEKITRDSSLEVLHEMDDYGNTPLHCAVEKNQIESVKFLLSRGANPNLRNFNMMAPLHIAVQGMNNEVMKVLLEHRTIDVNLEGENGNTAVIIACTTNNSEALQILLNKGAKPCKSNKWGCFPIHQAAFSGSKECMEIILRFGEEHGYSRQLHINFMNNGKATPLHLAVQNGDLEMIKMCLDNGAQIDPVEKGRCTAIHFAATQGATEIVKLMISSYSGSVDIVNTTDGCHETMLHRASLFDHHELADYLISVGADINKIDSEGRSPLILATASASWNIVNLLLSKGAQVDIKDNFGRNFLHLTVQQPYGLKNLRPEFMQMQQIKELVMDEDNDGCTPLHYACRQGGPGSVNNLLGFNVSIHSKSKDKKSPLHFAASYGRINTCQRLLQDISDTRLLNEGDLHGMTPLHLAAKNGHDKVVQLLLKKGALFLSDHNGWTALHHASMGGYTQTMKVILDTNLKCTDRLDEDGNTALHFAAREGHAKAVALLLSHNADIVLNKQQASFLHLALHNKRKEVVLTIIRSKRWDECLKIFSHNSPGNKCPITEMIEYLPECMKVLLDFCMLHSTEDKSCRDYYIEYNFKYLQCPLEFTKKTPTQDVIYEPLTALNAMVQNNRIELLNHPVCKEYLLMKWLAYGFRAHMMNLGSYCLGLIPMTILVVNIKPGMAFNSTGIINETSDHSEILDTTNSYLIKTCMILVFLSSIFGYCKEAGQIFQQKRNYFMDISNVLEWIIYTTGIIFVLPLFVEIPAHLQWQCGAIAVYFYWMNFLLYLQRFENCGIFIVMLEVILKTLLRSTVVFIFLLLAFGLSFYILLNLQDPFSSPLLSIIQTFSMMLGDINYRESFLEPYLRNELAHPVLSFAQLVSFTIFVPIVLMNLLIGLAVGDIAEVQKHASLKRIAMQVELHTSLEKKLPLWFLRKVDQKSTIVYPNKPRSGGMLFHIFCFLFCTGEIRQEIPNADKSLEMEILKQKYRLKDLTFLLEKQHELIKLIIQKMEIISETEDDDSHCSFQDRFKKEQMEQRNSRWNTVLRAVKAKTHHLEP

[4] = Table 1(i), 100 μM (*), relative to AITC 30 μM or capsaicin 350 nM depending on compound, […]
[5] = Table 1(a), 1 mM, relative to AITC 30 μM, average of three plates
[6] = Table 1(a), 1 mM, average of three plates
[7] = Table 1(b), 1 mM, relative to AITC 30 μM
[8] = Table 1(a), 100 μM (*), relative to AITC 30 μM
[9] = Table 1(d), 100 μM (*), relative to AITC 30 μM

Structure (SMILES) | A1V1 activation, % of agonist value [1, 5] [%] | activation at 1000 µM [2, 6] [%] | activation at 1000 µM [3, 6] [%] | A1V1 activation, % of agonist value [1, 7] [%] | activation at 1000 µM ([2]; Table 1(b), 1 mM) [%] | activation at 1000 µM ([3]; Table 1(b), 1 mM) [%] | further results
CC1=NC(C)OC1C (stereo not drawn) [2,4,5-Trimethyl-3-oxazoline] | – | – | – | – | – | – | A1V1 activation, % of agonist value [1, 4]: 4.1%; activation at 100 µM ([2]; Table 1(i), 100 μM (*), […]): 101%; TRPV1 activation selectivity, in words [2]: TRPV1 activators which do not modulate TRPA1 or TRPA1V1; activation at 100 µM ([3]; Table 1(i), 100 μM (*), […]): 2.1%
c1ccc(CCCc2ccccn2)cc1 [2-(3-Phenylpropyl)pyridine] | 74.53 | 21.5 | 76 | – | – | – | –
O=Cc1cc2ccccc2o1 [2-Benzofurancarboxaldehyde] | 102.3 | 57.6 | 91 | – | – | – | –
CCCCc1ccco1 [2-Butylfuran] | 62.77 | 20.2 | 68.5 | – | – | – | –
O=C1CCCC1C1CCCC1 (stereo not drawn) [2-Cyclopentylcyclopentanone] | – | – | – | 90.8 | 24 | 25 | –
CCc1ccco1 [2-Ethylfuran] | – | – | – | – | – | – | A1V1 activation, % of agonist value [1, 4]: 1.8%; activation at 100 µM ([2]; Table 1(i), 100 μM (*), […]): 58.7%; TRPV1 activation selectivity, in words [2]: TRPV1 activators which do not modulate TRPA1 or TRPA1V1; activation at 100 µM ([3]; Table 1(i), 100 μM (*), […]): 1.2%
Cc1nccnc1SCc1ccco1 [2-Furfurylthio-3-methylpyrazine] | – | – | – | – | – | – | A1V1 activation, % of agonist value [1, 8]: 80.9%; activation at 100 µM ([2]; Table 1(a), 100 μM (*)): 31.3%; activation at 100 µM ([3]; Table 1(a), 100 μM (*)): 80.7%
C=Cc1ccc(O)c(OC)c1 [2-Methoxy-4-vinylphenol] | 81.90 | 20.7 | 74.8 | – | – | – | –
CCC(C)COC(=O)CC(C)C (stereo not drawn) [2-Methylbutyl isovalerate] | – | – | – | – | – | – | A1V1 activation, % of agonist value ([1]; Table 1(i), 1 mM, relative to AITC 30 μM or capsaicin 350 nM depending on compound, […]): 2.1%; activation at 1000 µM ([2]; Table 1(i), 1 mM, […]): 75.3%; TRPV1 activation selectivity, in words [2]: TRPV1 activators which do not modulate TRPA1 or TRPA1V1; activation at 1000 µM ([3]; Table 1(i), 1 mM, […]): 1.7%
Sc1ccc2ccccc2c1 [2-Napthlaenthiol] | – | – | – | – | – | – | A1V1 activation, % of agonist value [1, 8]: 85.2%; V1 activation, % of agonist value ([2]; Table 1(a), 100 μM (*)): 120.3%; A1 activation, % of agonist value ([3]; Table 1(a), 100 μM (*)): 66.3%
CCCc1ccccc1O [2-Propylphenol] | 183.8 | 96.9 | 126 | – | – | – | –
CC(CC=O)CC(C)(C)C (stereo not drawn) [3,5,5-Trimethylhexanal] | – | – | – | 114.7 | 217 | 133 | –
CCC(S)C(C)=O (stereo not drawn) [3-Mercapto-2-pentanone] | 72.6 | 59.2 | 92 | – | – | – | A1V1 activation, % of agonist value ([1]; Table 1(c), 100 μM (*), relative to AITC 30 μM): 100%; activation at 100 µM ([3]; Table 1(c), 100 μM (*)): 103%
CC(=O)C(C)S (stereo not drawn) [3-Mercaptobutanone, 3-Mercapto-2-butanone] | – | – | – | 80.9 | 63.8 | 50.4 | A1V1 activation, % of agonist value [1, 9]: 53.3%; activation at 100 µM ([3]; Table 1(d), 100 μM (*)): 68.9%
CC(C)C(C=O)c1ccccc1 (stereo not drawn) [3-Methyl-2-Phenylbutyraldehyde] | 93.08 | 75.8 | 90.6 | – | – | – | –
CCCC1CC(=O)C=C(C)C1 (stereo not drawn) [3-Methyl-5-propyl-2-cyclohexen-1-one] | – | – | – | 101.0 | 59.2 | 69 | –
CCCCC=CC(C)=O [3-Octen-2-one] | 45.60 | 30 | 52.7 | – | – | – | –

Structure (SMILES) | A1V1 activation, % of agonist value [1, 5] [%] | activation at 1000 µM [2, 6] [%] | activation at 1000 µM [3, 6] [%] | A1V1 activation, % of agonist value [1, 7] [%] | activation at 1000 µM ([2]; Table 1(b), 1 mM) [%] | activation at 1000 µM ([3]; Table 1(b), 1 mM) [%] | further results
OCCCc1ccccc1 [3-Phenylpropanol] | – | – | – | 64.94 | 32 | 51.4 | –
CCCCC(=O)C(CCC)Sc1ccoc1C (stereo not drawn) [4-(2-Methyl-3-furylthio)-5-nonanone] | – | – | – | – | – | – | A1V1 activation, % of agonist value [1, 9]: 34.1%; A1V1 activation, % of agonist value ([1]; Table 1(g), 1 mM, relative to capsaicin 350 nM): 64%; activation at 1000 µM ([2]; Table 1(g), 1 mM): 40.6%; activation at 100 µM ([3]; Table 1(d), 100 μM (*)): 52.5%
CC1=C(O)C(=O)CO1 [4-Hydroxy-5-methyl-3-furanone] | 38 | 40.5 | 58 | – | – | – | –
O=Cc1ccc(O)cc1 [4-Hydroxybenzaldehyde] | – | – | – | – | – | – | A1V1 activation, % of agonist value [1, 8]: 163.2%; A1V1 activation, % of agonist value ([1]; Table 1(c), 1 mM, relative to AITC 30 μM): 60.3%; activation at 100 µM ([2]; Table 1(a), 100 μM (*)): 123%; activation at 100 µM ([3]; Table 1(a), 100 μM (*)): 80.4%; activation at 1000 µM ([3]; Table 1(c), 1 mM): 63%
CC(O)CCc1ccccc1 (stereo not drawn) [4-Phenyl-2-butanol] | – | – | – | 81.29 | 37.9 | 58.8 | –
CC/C=C\CCCCO [5-Octen-1-ol, (Z)] | 69.24 | – | – | – | – | – | V1 activation, % of agonist value [2, 6]: 20.50%; A1 activation, % of agonist value [3, 6]: 62.30%
CCCCCC(=O)CCCC(=O)O [5-Oxodecanoic acid] | – | – | – | 39.34 | 53.4 | 28.6 | –
OCCCCCc1ccccc1 [5-Phenyl-1-pentanol] | – | – | – | 52.1 | 113 | 119 | –
CCCCCC/C=C/C=O [(E)-2-Nonenal] | – | – | – | 61.8 | 89 | 130 | –
C=CCSSSCC=C [Allyl-trisulfide] | 89.08 | 32.9 | 83.5 | – | – | – | –
CCCCCC(=Cc1ccccc1)CO [Alpha-Amylcinnamyl alcohol] | 77.36 | 21.1 | 96.4 | – | – | – | –
CC1COC(c2ccccc2)O1 (stereo not drawn) [Benzaldehyde propylene glycol acetal] | – | – | – | 78.33 | – | – | V1 activation, % of agonist value ([2]; Table 1(b), 1 mM): 34.38%; A1 activation, % of agonist value ([3]; Table 1(b), 1 mM): 48.03%
c1ccc2scnc2c1 [Benzothiazole] | – | – | – | – | – | – | A1V1 activation, % of agonist value [1, 8]: 74.4%; activation at 100 µM ([2]; Table 1(a), 100 μM (*)): 33.4%; activation at 100 µM ([3]; Table 1(a), 100 μM (*)): 51.3%
CC1=C(CC=O)C(C)(C)CCC1 [Beta-Cyclohomocitral] | 66.79 | – | – | – | – | – | V1 activation, % of agonist value [2, 6]: 61.74%; A1 activation, % of agonist value [3, 6]: 81.44%
CCCCOC(=O)c1ccc(O)cc1 [Butylparaben, Butyl 4-hydroxybenzoate] | 98.1 | 79.1 | 105 | – | – | – | A1V1 activation, % of agonist value ([1]; Table 1(e), 100 μM (*), relative to AITC 30 μM): 127.3%; activation at 100 µM ([3]; Table 1(e), 100 μM (*)): 98.7%
Cc1ccc(C(C)C)cc1O [Carvacrol] | – | – | – | 134.1 | 84.6 | 115 | –
CC(C)=CCCC(C)CCO (stereo not drawn) [Citronellol] | – | – | – | 34.4 | 106 | 102 | –
